# Experimental data: patent publication US8029764B2, “Methods for detection of colorectal cancer” (The Johns Hopkins University, priority 2001, dated 2011)
# System: colorectal tissue transcripts
# Experiment: SAGE of normal, adenoma and cancer colorectal tissue (transcript tag counts)
# Design: species or system human
# Text: In an effort to identify potential molecular markers of early colorectal tumors, we have here analyzed gene expression in benign and malignant colorectal tumors in an unbiased and comprehensive fashion. We used SAGE to analyze global gene expression in normal, benign and malignant colorectal tissue. SAGE is a gene expression profiling method that associates individual mRNA transcripts with 15-base tags derived from specific positions near their 3′ termini (3). The abundance of each tag provides a quantitative measure of the transcript level present within the mRNA population studied. SAGE is not dependent on pre-existing databases of expressed genes, and therefore provides an unbiased view of gene expression profiles. For the current study, SAGE libraries derived from two samples of normal colonic epithelium, two colorectal adenomas, and two colorectal cancers were analyzed.
# SAGE. For the initial SAGE^3 of benign tumors, fresh adenomas were obtained from surgical specimens derived from FAP patients. Adenomas from FAP patients were employed because of the ready availability of small lesions and the certainty of inactivation of the APC pathway which initiates the formation of the majority of sporadic tumors. After histopathological verification of the neoplastic nature of the lesion (>70% neoplastic cells), total RNA was isolated by solubilizing the tissue in RNAgents Lysis Buffer (Promega, Madison, Wis.) followed by ultracentrifugation over a cesium chloride gradient. mRNA selection was performed from the purified total RNA using oligo(dT) cellulose (Life Technologies, Gaithersburg, Md.). […] Tags were extracted from the raw sequence data and, after excluding repeated ditags, linker sequences, and tags from the polyrnorphic Major Histocompatibility loci, the resulting tag libraries were compared and statistical analysis performed using SAGE software, version 4.0. Data from the libraries are publicly available at the Uniform Resource Locator (URL) address for the http file type found on the www host server that has a domain name of ncbi.nlm.nih.gov, and a path to the directory SAGE, and detailed SAGE protocols are available at the Uniform Resource Locator (URL) address for the http file type found on the www host server that has a domain name of sagenet.org, and file name of sage_protocol.htn.
# [1] = normal colorectal tissue library 1
# [2] = normal colorectal tissue library 2
Sequence,AD1 (SAGE tag count) (adenoma library 1),AD2 (SAGE tag count) (adenoma library 2),CA1 (SAGE tag count) (cancer library 1),CA2 (SAGE tag count) (cancer library 2),NC1 (SAGE tag count) [1],NC2 (SAGE tag count) [2],AD1 (SAGE tag count) (SAGE library AD1),AD2 (SAGE tag count) (SAGE library AD2),CA1 (SAGE tag count) (SAGE library CA1),CA2 (SAGE tag count) (SAGE library CA2),NC1 (SAGE tag count) (SAGE library NC1),NC2 (SAGE tag count) (SAGE library NC2)
TTTGGTTTCA (chemistry not fully specified),0,0,0,0,2,13,,,,,,
CTGAACCTCC (chemistry not fully specified),,,,,,,2,0,0,0,5,15
TCGGAGCTGT (chemistry not fully specified),9,6,3,0,21,20,,,,,,
CGGGAGTCGG (chemistry not fully specified),,,,,,,13,2,9,1,28,30
GCCCAGTGGC (chemistry not fully specified),,,,,,,8,15,2,5,51,0
GCCAGGTTGC (chemistry not fully specified),,,,,,,1,1,1,1,14,5
ACGGTCCAGG (chemistry not fully specified),,,,,,,0,0,0,1,5,12
TCAGCTGCAA (chemistry not fully specified),0,0,9,3,56,16,,,,,,
AATAGTTTCC (chemistry not fully specified),,,,,,,2,3,6,1,7,16
GGAAGAGCAC (chemistry not fully specified),,,,,,,1,1,2,5,21,11
TGGCTACTTA (chemistry not fully specified),1,0,1,2,6,9,,,,,,
AGCCCGACCA (chemistry not fully specified),,,,,,,2,4,1,3,16,8
GTGGGGGCGC (chemistry not fully specified),,,,,,,2,0,1,0,5,22
GCCACGTGGA (chemistry not fully specified),,,,,,,5,2,7,1,19,16
AGCAGGAGCA (chemistry not fully specified),,,,,,,6,3,7,6,50,14
TTATGGTGTG (chemistry not fully specified),0,0,0,0,11,17,,,,,,
AAGGTAGCAG (chemistry not fully specified),,,,,,,2,4,2,4,15,16
CTTAGAGGGG (chemistry not fully specified),,,,,,,0,1,1,1,16,22
ACCTGGGGAG (chemistry not fully specified),,,,,,,1,3,4,3,35,11
CCTGCTTGTC (chemistry not fully specified),,,,,,,0,3,0,5,20,23
TTCTGGTGCG (chemistry not fully specified),0,0,1,0,8,2,,,,,,
ACTCTTGTTG (chemistry not fully specified),,,,,,,0,0,0,0,7,2
CACCCCTGAT (chemistry not fully specified),,,,,,,58,58,13,36,73,169
TGAGTGACAG (chemistry not fully specified),0,6,3,7,9,68,,,,,,
ACAATTGGTC (chemistry not fully specified),,,,,,,0,0,0,0,0,10
GTGCCTGAGA (chemistry not fully specified),,,,,,,2,6,7,3,18,15
